SMILES strings stand for the structures.

The subject of data set [1] is single cycle replicable HIV-1 (SCR HIV-1) virions. As to conditions: ratio of CC50 (Hela, XTT) to IC50 (p24).
Data set [2] can be described thus: XTT-based cytotoxicity assay. The conditions noted are these: human. (In general: Tetrazolium assays rely on reduction of a dye to a coloured formazan, in cell work by metabolically active cells.)
The test system of data set [3] is single cycle replicable HIV-1 (SCR HIV-1) virions. Kind of data set: microbe, parasite or virus in culture. As to conditions: Human immunodeficiency virus 1, HeLa, 48 h, read-out: Anti HIV activity IC50 (concentration causing 50% HIV activity inhibition).

Regarding `C=C(C)C(O)CCC(C)C1CC[C@@]2(C)C3CCC4C(C)(C)[C@@H](O)CC[C@@]45C[C@@]35CC[C@]12C` (stereo partly shown) [1a & 1b], in data set [1], the “Therapeutic index TI (CC50/IC50)” value amounted to 4.67. In addition, it took 14 nM to reach half-maximal cytotoxicity in data set [2] (HeLa cells) (CC50 at 3 days). The IC50 in data set [3] was found to be 3 nM.
For the molecule `CC1(C)CC[C@]2(C(=O)O)CC[C@]3(C)C(=CC[C@@H]4[C@@]5(C)CC[C@H](O)C(C)(C)[C@@H]5CC[C@]43C)[C@@H]2C1` [Compound 4, Oleanolic acid], the “Therapeutic index TI (CC50/IC50)” value in data set [1] is given as 2.44. For the same molecule, half-maximal cytotoxicity in data set [2] (CC50 at 3 days) was put at 22 nM. Further, the IC50 in data set [3] came out at 9 nM.
As for `CC(C/C=C\C(C)(C)O)C1CC[C@@]2(C)C3CCC4C(C)(C)[C@@H](O)CC[C@@]45C[C@@]35CC[C@]12C` (stereo partly drawn) [Compound 2, Cycloart-23-ene-3β,25-diol], the “Therapeutic index TI (CC50/IC50)” value in data set [1] turned out to be 3.67. The molecule also displayed a CC50 at 3 days in data set [2] (HeLa cells) of 22 nM. The IC50 in data set [3] worked out at 6 nM.
With `CC=C(C)C(=O)OC1C(COC(=O)c2cccnc2)C(O)C2C(=O)C3(CC(C)C(OC(=O)CCC)C13)C(C)(O)CC1(OC(C)=O)C2C1(C)C` (stereo not shown) [Compound 5, 13-acetyl-3-butanoyl-5-angeloyl-20-nicotinyl-1,2,6,7-tetrahydroingenol], the “Therapeutic index TI (CC50/IC50)” value in data set [1] amounted to 0.11. In data set [2], half-maximal cytotoxicity (CC50 at 3 days) was put at 4 nM. For the same molecule, the IC50 in data set [3] was determined as 36 nM.
Taken in the same sequence, the figures for `Cc1ccnc2c1NC(=O)c1cccnc1N2C1CC1` [Nevirapine, reference compound] were greater than 105.31, 6740 nM and less than 64 nM.
Turning to `CCC(=O)OC1C(C)CC23C(=O)C(C(OC(=O)c4ccccc4)C(COC(=O)c4cccnc4)C(OC(C)=O)C12)C1C(C)(C)C1(OC(C)=O)CC3(C)O` (stereo not shown) [Compound 7, 5,13-diacetyl-7-benzoyl-20-nicotinyl-3-propionyl-1,2,6,7-tetrahydroingenol], the half-maximal cytotoxic concentration (CC50) at 3 days in data set [2] amounted to 3260 nM. Further, the IC50 in data set [3] came to 8 nM.
For the molecule `CC=C(C)C(=O)OC1C(COC(=O)c2cccnc2)C(OC(C)=O)C2C(=O)C3(CC(C)C(OC(=O)CC)C13)C(C)(O)CC1(OC(C)=O)C2C1(C)C` (stereo not shown) [Compound 6, 7,13-diacetyl-5-angeloyl-20-nicotinyl-3-propionyl-1,2,6,7-tetrahydroingenol], in data set [1], the “Therapeutic index TI (CC50/IC50)” value was found to be 11.75. This molecule also showed a CC50 at 3 days in data set [2] of 84 nM. Also, the IC50 in data set [3] was found to be 7 nM.
In turn, `CC=C(C)C(=O)OC1C(CO)C(O)C2C(=O)C3(CC(C)C(OC(=O)CCC)C13)C(C)(OC(=O)c1cccnc1)CC1(OC(C)=O)C2C1(C)C` (stereo not shown) [Compound 8, 13-acetyl-5-angeloyl-11-nicotinyl-3-butanoyl-1,2,6,7-tetrahydroingenol] displayed a CC50 at 3 days in data set [2] of 168 nM. Further, the IC50 in data set [3] worked out at 44 nM.

What is called CC50 is the concentration giving 50% cytotoxicity. A low value points to greater toxicity to the cells.

The record behind these values is paper PMC5242348, “Triterpene Constituents of Euphorbia Erythradenia Bioss. and their Anti-HIV Activity” (Iranian Journal of Pharmaceutical Research : IJPR, 2016).
